Numbers after ± are expanded uncertainties.

The nature of series [1]: refractive index (Na D-line) (dimensionless). The note with it: 293.15 K; 101.33 kPa; Liquid; Standard Abbe refractometry.
For series [2] the following is noted: 293.15 K; 101.33 kPa; Liquid; Pycnometric method.

Consider `c1ccccc1` [benzene], for which, in series [1], the refractive index was found to be 1.5011 ± 0.0004. For the same compound, the mass density in series [2] is 879 ± 1 kg/m3.

As to `CCOC(C)=O` [ethyl acetate], the refractive index in series [1] worked out at 1.3588 ± 0.0004. In addition, the mass density in series [2] was found to be 900 ± 1 kg/m3.

Turning to `Cc1ccccc1` [toluene], the refractive index in series [1] was found to be 1.4967 ± 0.0004. In addition, in series [2], the mass density is 866 ± 1 kg/m3.

These data come from the NIST ThermoML archive (doi:10.1021/je800842z).
